Measured values as given in patent publication US20040115245A1, “Autoinducer compounds and their uses” (priority 2001, published 2004).
“Also recorded” adds a separate entry of the source.

How the values were obtained:
cultures of rumen fluid = assay: In vitro digestion of grass silage by cultures of rumen fluid; format: cell-based, cow; details: OHHL 0, 200, 500 and 1000 nanomoles final in rumen fluid, 37° C., 10 hours, triplicate
Text: Autoinducer compounds such as acyl homoserine lactones can have significant effects on cultures of bacteria. For example, they may be used to induce expression of antibiotics and extracellular enzymes. […] is the signal molecule for antibiotic production in Chromobacterium violaceum; butanoyl homoserine lactone triggers various phenotypes in Pseudomonas aeruginosa including the production of various enzymes and lectins. OHHL is known to have different effects on different species. For example, in Erwinia stewartii it induces production of exopolysaccharides, while in Vibrio species it promotes bioluminescence. Thus, in a complex mixed culture comprising many species including ruminobacter sp., prevotella sp., ruminococcus sp., it is hard to predict the specific phenotypes that will be induced by even the introduction of just one autoinducer compound. However. the global effect on rumen mixed culture fermentation can be measured in terms of the efficiency of digestion of forage. […] A control sample treated with water and four test samples treated with using nanomolar concentrations of OHHL are examined.
Rumen fluid was collected from a healthy fistulated grass fed cow and immediately dispensed into 75 ml bottles. These bottles were kept at 37° C. […]

broiler chickens = assay: Growth performance and mortality of broiler chickens raised in floor pens; format: in vivo, broiler chickens (Cobb×Cobb); details: for Feed Conversion, Day 21-35: grower period; for Daily Feed intake, Day 0-21 / Daily Feed intake, Day 0-35 / Daily Feed intake, Day 21-35: per bird
Method: This experiment examined the effect of N-(3-oxohexanoyl)-L-homoserine lactone (OHHL) (CAS #: 143537626, molecular formula : C10H15NO4, molecular weight: 213) on the growth performance and mortality of broiler chickens.
A stock solution of 1 mM OHHL (0.213 g/L) was prepared as follows. Approximately 50% of the required volume of distilled water was warmed to approximately 30-40° C. and used to dissolve the required amount of OHHL powder. The solution was made up to volume using distilled water stored at room temperature. OHHL solution (0.213 g/L) was applied to treated crumbled feed at a rate of 3 kg per tonne. Control feed was treated with distilled water at a rate of 3 kg per tonne. The OHHL solution was stored for less than 2 days prior to application to feed.
The antibiotic BMD®110 was used as a positive control in this study. The active ingredient is bacitracin methylene disalicyclate. The product contains 110 g of bacitracin activity per kg and is approved for prevention of necrotic enteritis in broiler chickens when given at a dose of 55 ppm in feed (500 g BMD®110/tonne feed).
Coxistac® 6% premix was used as an ionophore in all study diets as an aid in the prevention of coccidiosis. The product contained 60 g salinomycin per kg and was administered at a dose of 60 ppm in feed (1 kg Coxistac® 6% premix per tonne feed).
The experiment lasted 35 days with the day of placement of broiler chicks considered as day zero. A total of 1,200 male day-old broiler chickens (Cobb×Cobb) were assigned to treatment on day 0. Birds were vaccinated for Marek's disease at the hatchery. Twenty-four pens, each providing 45 square feet of floor space, were assigned to treatment groups. […] Adjacent pens were separated by a solid 12-inch high plastic barrier at bird level. A welded wire fence with 1-inch square openings was located on top of all barriers. Each pen was permanently identified by number and contained 50 birds on day zero. Each pen contained four nipple-type drinkers which provided clean drinking water ad libitum. Dry feed was provided ad libitum in tube-type feeders (one per pen) of 20 kg capacity.
The barn was heated by five natural gas heaters which were equally spaced and positioned to warm incoming air at the north wall of the building. Air was exhausted by fans located on the south-facing wall of the building. Lighting program, barn temperature, and other management practices were typical of commercial broiler chicken producers in North America. Birds that were moribund and unable to reach food or water were culled and euthanised by carbon dioxide gas.
Bodyweight, pen number and date of death were recorded for each bird that was culled or found dead. Mortalities were submitted to the pathologist to determine the apparent cause of death.
A randomised complete block design was used to study the main and interactive-effects of OHHL (0 and 0.639 g/tonne) and dietary antibiotic ([…]) in a 2×2 factorial arrangement. Dietary treatments were as follows:
There were four pens per block and six replicate blocks for a total of 24 pens.
The feeding program was used in the study used a starter feed type on days 0 to 20 and a grower feed type on days 21 to 35. Diet formulation was representative of commercial diets in North America.
A starter diets using a basal mix of starter diet containing either 0 or 55 ppm BMD was manufactured, pelleted, and crumbled. Bagged starter feed was treated with either distilled water (0 g OHHL per L) or OHHL solution (0.213 g OHHL per L) using a horizontal double ribbon mixer of 100 kg capacity. Distilled water or OHHL solution (0.213 g per L) were applied to crumbled feed at a rate of 3 kg per tonne feed. Grower diets were manufactured as described above for starters.
The data collected consisted of:
1. Bodyweight on days 0, 21, and 35.
2. Amounts of each feed (starter and grower) consumed.
3. Bodyweight and date of death for birds which were culled or died.
4. […]

sheep = assay: Rumen dry matter disappearance of corn silage in cannulated sheep (in situ bags); format: in vivo; set-up: dry matter disappearance, OHHL − Control, Mean / dry matter disappearance, OHHL − Control, 4 Hours / dry matter disappearance, OHHL − Control, 8 Hours / dry matter disappearance, OHHL − Control, 12 Hours / dry matter disappearance, OHHL − Control, 24 Hours: concentration or dose not given beside the values
Method: This experiment examined the effect of N-(3-oxohexanoyl)-L-homoserine lactone (OHHL) (CAS#: 143537626, molecular formula : C10H15NO4, molecular weight: 213) on rumen dry matter disappearance in vivo in sheep.
A stock solution of OHHL (0.639 gram/L) was prepared as follows. Approximately 50% of the required volume of distilled water was warmed to approximately 30-40° C. and used to dissolve the required amount of OHHL powder. The volumetric flask was made up to volume using distilled water stored at room temperature. OHHL solution was applied to pelleted sheep ration at a rate of 3 kg per tonne of feed. Control feed was treated with 3 kg of distilled water per tonne.
Initial attempts to administer OHHL by application of an aqueous solution to the outside of pelleted feed were modified as the sheep decreased intake of treated feed after a few days. Instead, OHHL was administered as an oral drench twice daily commencing on the afternoon of Day 11 of each period.
A restricted quantity of pelleted ration was provided at a rate of approximately 0.5 kg/day (0.25 kg in the a.m. and 0.25 kg in the p.m.). Access to hay was restricted as needed to help ensure that sheep ration was consumed.
On Days 12 and 13, pelleted ration (0.25 kg/animal) was issued to animals approximately 1 hour prior to introduction of bags into the rumen and again following removal of the 8-hour bag from each animal.
One fresh sample of corn silage was dried to constant weight and allowed to cool to room temperature. A representative sub-sample was taken for dry matter determination. The sample was ground to pass a 1 mm screen, mixed and sampled for dry matter assay. The remaining sample was stored for in situ determination of dry matter disappearance from the rumen of cannulated sheep.
Ankom rumen sampling bags were used in the study. Each bag was approximately 5 cm×10 cm, suitable for a one-gram sample. Pore size was 53±10 microns. Dried, ground corn silage was weighed (1.00±0.01 grams) into bags and sealed. A set of four bags was prepared per animal per day and these were attached to a string to facilitate placement in and removal from the rumen. A fifth bag served as a blank for each set of four bags. The blank was not placed in the rumen but was washed, processed and dried.
A rumen cannula was surgically placed in each of five mature (approximately 3-year old) ewes. Following recovery from surgery, four of these animals were selected for use in the study. The fifth animal served as a reserve for use in the event of post-surgical complications in a study animal.
Dry matter disappearance was measured by removing bags from the rumen at 4, 8, 12 and 24 hours and washed under cold running tap water together with a corresponding blank bag. Bags were then dried to constant weight. Measurement of dry matter disappearance was completed for each animal commencing on the morning of Day 12 and Day 13 of each period.
A Latin Square Design was used to study the effects of two treatments:
A, Control: 0 gram OHHL per tonne ration.
B: Treated with the equivalent of 1.917 gram OHHL per tonne ration.
Each period was of 14 days duration. A total of four study animals were blocked based on bodyweight (2 blocks). Animals within block were randomly assigned to Sequence 1 or 2:
Data were analysed by a multiple regression analysis that included effects of treatment, animal, period, study day and hour.

[1] = individual treatment mean (2×2 factorial cell)
[2] = individual treatment mean (2×2 factorial cell), OHHL 0.639 g/tonne feed, BMD 110 500 g/tonne
[3] = main-effect mean pooled over the other factor

CCCC(=O)CC(=O)N[C@H]1CCOC1=O [OHHL, N-(3-oxohexanoyl)-L-homoserine lactone]
mean percentage loss of weight of grass silage (cultures of rumen fluid): increased the mean percentage loss of weight
adverse effects on bird health / survival (broiler chickens; continuous administration in feed for 35 days, necropsy of all mortalities): no evidence of any adverse effect; also recorded: did not have an adverse effect on bird survival
Mortality, Day 0-21 (broiler chickens; [1]): 1.0%
Mortality, Day 0-35 (broiler chickens; [1]): 1.7%
Mortality, Day 21-35 (broiler chickens; [1]): 0.7%
Average bodyweight, Day 21 (broiler chickens; [2]): 0.796 kg
Average bodyweight, Day 35 (broiler chickens; [2]): 1.934 kg
Feed Conversion, Day 21-35 (broiler chickens; [1]): 1.812
Feed Conversion, Day 0-35 (broiler chickens; individual treatment mean (2×2 factorial cell), overall period): 1.629
Daily Feed intake, Day 0-21 (broiler chickens; [1]): 0.049
Daily Feed intake, Day 0-35 (broiler chickens; [1]): 0.088
Daily Feed intake, Day 21-35 (broiler chickens; [1]): 0.147
Feed Conversion, Day 0-21 (broiler chickens; individual treatment mean (2×2 factorial cell), starter period): 1.357
Mortality, Day 0-21 (broiler chickens; [3]): 1.3%
Mortality, Day 0-35 (broiler chickens; [3]): 2.2%
Mortality, Day 21-35 (broiler chickens; [3]): 0.8%
Average bodyweight, Day 35 (broiler chickens; main-effect mean pooled over the other factor, OHHL 0.639 g/tonne feed, BMD 110 500 g/tonne): 1.937 kg
Feed Conversion, Day 21-35 (broiler chickens; [3]): 1.794
Daily Feed intake, Day 0-21 (broiler chickens; [3]): 0.048
Daily Feed intake, Day 0-35 (broiler chickens; [3]): 0.087
Daily Feed intake, Day 21-35 (broiler chickens; [3]): 0.147
dry matter disappearance, 4 Hours (sheep; corn silage in rumen bags, 4 h incubation, OHHL equivalent to 1.917 gram per tonne ration, oral drench twice daily): 53.0%
dry matter disappearance, 8 Hours (sheep; corn silage in rumen bags, 8 h incubation, OHHL equivalent to 1.917 gram per tonne ration): 57.8%
dry matter disappearance, 12 Hours (sheep; corn silage in rumen bags, 12 h incubation, OHHL equivalent to 1.917 gram per tonne ration): 65.7%
dry matter disappearance, 24 Hours (sheep; corn silage in rumen bags, 24 h incubation, OHHL equivalent to 1.917 gram per tonne ration): 74.5%
dry matter disappearance, OHHL − Control, 4 Hours (sheep; difference to control, 4 h): 4.16%
dry matter disappearance, OHHL − Control, 8 Hours (sheep; difference to control, 8 h): −0.60%
dry matter disappearance, OHHL − Control, 12 Hours (sheep; difference to control, 12 h): 3.36%
dry matter disappearance, OHHL − Control, 24 Hours (sheep; difference to control, 24 h): 0.15%
dry matter disappearance, OHHL − Control, Mean (sheep; difference to control, mean of all times (percentage units; P=0.105)): 1.77%
dry matter disappearance, Mean (sheep; mean over 4, 8, 12, 24 h): 62.7%
